{
  "source": "patent US6365634B1",
  "about": "“Naturally occurring compounds and their derivatives as cyclooxygenase 2 and/or 5-lipoxygenase inhibitors” (C-P Technology Limited Partnership, priority 1997, dated 2002)",
  "key": {"human recombinant COX II": {"target": "T1, human recombinant COX II (Homo sapiens, UniProt P35354)", "T1 construct": "purchased Oxford Chemical", "T1 sequence (P35354 18-604)": "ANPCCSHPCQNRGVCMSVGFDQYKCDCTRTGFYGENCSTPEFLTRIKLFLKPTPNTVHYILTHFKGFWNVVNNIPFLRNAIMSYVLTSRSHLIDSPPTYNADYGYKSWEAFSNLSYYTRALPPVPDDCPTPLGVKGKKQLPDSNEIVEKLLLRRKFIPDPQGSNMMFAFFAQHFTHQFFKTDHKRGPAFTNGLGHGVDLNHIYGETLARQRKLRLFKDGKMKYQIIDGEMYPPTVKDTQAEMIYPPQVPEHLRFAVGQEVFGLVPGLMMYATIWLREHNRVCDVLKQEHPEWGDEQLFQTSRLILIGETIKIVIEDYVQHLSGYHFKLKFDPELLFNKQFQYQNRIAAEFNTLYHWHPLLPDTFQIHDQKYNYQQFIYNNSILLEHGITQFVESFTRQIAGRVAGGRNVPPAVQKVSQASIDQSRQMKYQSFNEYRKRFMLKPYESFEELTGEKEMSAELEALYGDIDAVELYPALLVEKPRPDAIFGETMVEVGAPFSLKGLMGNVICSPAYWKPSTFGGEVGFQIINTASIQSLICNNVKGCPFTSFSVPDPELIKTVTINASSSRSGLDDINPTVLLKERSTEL", "assay": "COX II biochemical assay (3H-arachidonic acid conversion, TLC quantitation)", "quoted_text": "Two units of recombinant COX II enzyme (corresponding to 0.8 ug total protein) was added followed by 5 uL aliquots of the peat bog extracts yielding a final concentration of the peat extracts of 25 ug/ml. All samples were run in duplicate. […] Reactions were initiated by the addition of ^3H-arachidonic acid (DuPont-NEN) at a final concentration of 50 uM. The reactions were maintained for 5 minutes at 37° C. and stopped by the addition of ice-cold methanol/acetic acid (10:1 v/v).\nThe assessment of cyclooxygenase activity (both COX I and II) in the presence and absence of the peat bog extracts was based on the quantitation of tlhe radiolabeled arachidonic acid metabolites prostaglandin A2 (PGA2), PGE2, and PGF2-alpha. To do this, a 50 uL sample of each reaction solution was separated via TLC on LK6DF silica plates co-spotted with arachidonic acid, PGA2, and PGF2-alpha and developed in hexane/isopropyl alcohol/ acetic acid (85:15:1 v/v). The bands were visualized by UV-vis or I2 staining and scraped into scintillation vials for quantitation. […] The total enzyme activity (At), the corrected enzyme activity in the presence of an inhibitor (Ai), and % inhibition were calculated by the following equations:\n3) Percent Inhibition=100 (1−Ai/ At)"}, "[1]": {"target": "T2, rabbit reticulocyte 15-LO (Oryctolagus cuniculus, UniProt P12530)", "T2 construct": "24.5 units of a rabbit reticulocyte 15-LO preparation; tissue Oxford Biochemicals; host or cells: rabbit reticulocytes", "T2 sequence (P12530 1-663)": "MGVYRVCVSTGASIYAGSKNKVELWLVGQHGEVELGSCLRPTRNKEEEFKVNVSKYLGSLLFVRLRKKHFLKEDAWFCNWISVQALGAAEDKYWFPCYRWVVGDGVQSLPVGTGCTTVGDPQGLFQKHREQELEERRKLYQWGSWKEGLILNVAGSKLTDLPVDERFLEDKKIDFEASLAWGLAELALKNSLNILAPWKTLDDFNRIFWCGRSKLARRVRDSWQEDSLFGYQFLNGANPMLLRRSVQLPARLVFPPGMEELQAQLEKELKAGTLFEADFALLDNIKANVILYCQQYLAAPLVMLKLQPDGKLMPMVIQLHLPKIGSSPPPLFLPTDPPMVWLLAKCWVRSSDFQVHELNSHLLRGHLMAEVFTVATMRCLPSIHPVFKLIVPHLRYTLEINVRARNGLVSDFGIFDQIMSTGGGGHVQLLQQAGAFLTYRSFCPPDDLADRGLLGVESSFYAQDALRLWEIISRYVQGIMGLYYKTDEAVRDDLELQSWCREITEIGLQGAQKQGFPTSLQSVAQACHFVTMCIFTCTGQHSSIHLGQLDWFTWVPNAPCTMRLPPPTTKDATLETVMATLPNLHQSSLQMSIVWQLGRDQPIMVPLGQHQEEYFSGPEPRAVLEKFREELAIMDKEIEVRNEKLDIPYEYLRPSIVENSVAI", "assay": "15-LO biochemical assay (15-HETE formation, TLC quantitation)", "conditions": "for Percent Inhibition of 15-LO: negative = increased activity", "description": "The inhibitory activity of dehydroabietic acid methyl ester was assessed by performing biochemical assays that utilized 1) human recombinant COX II, 2) ovine COX I, and 3) rabbit reticulocyte 15-LO. In all biochemical assays dehydroabietic acid methyl ester and inhibitory control compounds were used at a final concentration of […]. The COX I and II biochemical assays have been previously described in this document (see COX I and II Assays Used to Test X-8 Fractions and Purified Compounds, Example 3). The 15-LO assay was done using a modified version of a previously reported method (Corey, E. J., Shih, C., and Cashman, J. R. (1983) Proc. Natl. Acad. Sci. v80, p3,581; Sigal, E., Grunberger, D., Cashman, J. R., Craik, C. S., Caughey, G. H., and Nadel, J. A. (1988) Biochem. Biophys. Res Comm. v150(1), p376). Briefly, 24.5 units of a rabbit reticulocyte 15-LO preparation (corresponding to 7 ug total protein)(Oxford Biochemicals) was placed in potassium phosphate buffer (10 mM, pH 6.0). Dehydroabietic acid methyl ester was added to give a final concentration of 250 uM. The reaction was initiated by the addition of ^3H-AA (50 uM final concentration) and maintained at 37° C., for 5 min. The reaction was stopped by the addition of ice-cold methanol containing NaCNBH3 (to reduce peroxides). A portion of each reaction solution was then separated via TLC (250 μm PK6F 60 Å silica gel preparative TLC plate, Whatman), co-spotted with AA and 15-HETE (a metabolic product of 15-LO) and developed in hexane/ether/acetic acid (50:50:1) to separate 15-HETE from AA (Rf=0.29 and 0.5, respectively). Bands on the TLC plates were then visualized by I2 and scraped for quantitation. As with the COX I and II assays, percent inhibition was calculated based on a comparison between incubations performed in the presence and absence of dehydroabietic acid methyl ester (see “Fractionation and Bioassay Analysis of Fractions Derived from Extract-8” above)."}},
  "data": [
    {"smiles": "CC(C)(c1ccccc1)c1ccc(O)cc1", "note": "[4-Cumylphenol, 4-cumylphenol]", "values": [
      {"measurement": "Percent Inhibition of COX II", "setting": "human recombinant COX II; pure 4-cumylphenol, assay as Example 2B, concentration not given", "value": 22.4, "unit": "%"},
      {"measurement": "Percent Inhibition of 15-LO", "setting": "[1]; pure 4-cumylphenol, concentration not given", "value": "−40.0", "unit": "%"}
    ]},
    {"smiles": "COC(=O)[C@]1(C)CCC[C@]2(C)c3ccc(C(C)C)cc3CC[C@@H]12", "note": "[Dehydroabietic acid methyl ester, dehydroabietic acid methyl ester]", "values": [
      {"measurement": "inhibited COX II preferentially over COX I by", "setting": "human recombinant COX II; 250 uM, difference of percent inhibition COX II versus COX I", "value": "over 30%"},
      {"measurement": "Percent Inhibition of COX II", "setting": "human recombinant COX II; final concentration of 250 uM", "value": 31.5, "unit": "%"},
      {"measurement": "increase of the enzymatic activity of 15-LO", "setting": "[1]; 250 uM", "value": "over 93%"},
      {"measurement": "Percent Inhibition of 15-LO", "setting": "[1]; final concentration of 250 uM", "value": "−93.6", "unit": "%"}
    ]}
  ]
}
